Source: ChEMBL document CHEMBL5137049, “Discovery of a Novel Small-Molecule Inhibitor Disrupting TRBP-Dicer Interaction against Hepatocellular Carcinoma via the Modulation of microRNA Biogenesis” (J Med Chem, 2022)
Active and inactive are the calls of the source.

Legend:
[1] = tested on: HCCLM3; experiment: Upregulation of let-7 expression in human HCCLM3 cells at 10 uM by qRT-PCR analysis; assay type: functional, cell-based
[2] = tested on: MHCC97-L; experiment: Upregulation of let-7 expression in human MHCC97-L cells at 10 uM by qRT-PCR analysis; assay type: functional, cell-based
[3] = tested on: MHCC97-L; experiment: Inhibition of cell invasion in human MHCC97-L cells at 1 to 25 uM measured after 24 hrs by crystal violet staining based transwell assay; assay type: functional; settings: dose 1-25 µM

CCOC(=O)c1nc(-c2ccc(OC)cc2)oc1C
active: Activity [1] | Activity [2] | inhibition [3]
